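Dose response: 5 concentrations. Exposure: 48 h. Format: 96-well plates. Endpoint: linear interpolation; highest concentration if not reached. At the TGI there is no net growth.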
Assays:
Experiment in all cases: DTP human tumour cell line panel, 48 h
786-0 renal = system: 786-0 renal
A498 renal = system: A498 renal
A549 NSCLC = system: A549 NSCLC
ACHN renal = system: ACHN renal
CAKI-1 renal = system: CAKI-1 renal
CCRF-CEM leukemia = system: CCRF-CEM leukemia
COLO 205 colon = system: COLO 205 colon
DLD-1 colon = system: DLD-1 colon
DMS 114 small cell lung = system: DMS 114 small cell lung
DMS 273 small cell lung = system: DMS 273 small cell lung
EKVX NSCLC = system: EKVX NSCLC
HCT-116 colon = system: HCT-116 colon
HCT-15 colon = system: HCT-15 colon
HL-60(TB) leukemia = system: HL-60(TB) leukemia
HOP-18 NSCLC = system: HOP-18 NSCLC
HOP-62 NSCLC = system: HOP-62 NSCLC
HOP-92 NSCLC = system: HOP-92 NSCLC
HT29 colon = system: HT29 colon
IGROV1 ovarian = system: IGROV1 ovarian
K-562 leukemia = system: K-562 leukemia
KM12 colon = system: KM12 colon
KM20L2 colon = system: KM20L2 colon
LXFL 529 NSCLC = system: LXFL 529 NSCLC
M14 melanoma = system: M14 melanoma
M19-MEL melanoma = system: M19-MEL melanoma
MALME-3M melanoma = system: MALME-3M melanoma
MOLT-4 leukemia = system: MOLT-4 leukemia
NCI-H226 lung = system: NCI-H226 lung
NCI-H23 lung = system: NCI-H23 lung
NCI-H460 lung = system: NCI-H460 lung
NCI-H522 lung = system: NCI-H522 lung
OVCAR-4 ovarian = system: OVCAR-4 ovarian
OVCAR-5 ovarian = system: OVCAR-5 ovarian
OVCAR-8 ovarian = system: OVCAR-8 ovarian
RPMI-8226 leukemia = system: RPMI-8226 leukemia
RXF 393 renal = system: RXF 393 renal
SF-268 CNS = system: SF-268 CNS
SF-295 CNS = system: SF-295 CNS
SF-539 CNS = system: SF-539 CNS
SK-MEL-2 melanoma = system: SK-MEL-2 melanoma
SK-MEL-28 melanoma = system: SK-MEL-28 melanoma
SK-MEL-5 melanoma = system: SK-MEL-5 melanoma
SK-OV-3 ovarian = system: SK-OV-3 ovarian
SN12C renal = system: SN12C renal
SNB-19 CNS = system: SNB-19 CNS
SNB-75 CNS = system: SNB-75 CNS
SNB-78 CNS = system: SNB-78 CNS
SR leukemia = system: SR leukemia
SW-620 colon = system: SW-620 colon
TK-10 renal = system: TK-10 renal
U251 CNS = system: U251 CNS
UACC-257 melanoma = system: UACC-257 melanoma
UACC-62 melanoma = system: UACC-62 melanoma
UO-31 renal = system: UO-31 renal
XF 498 CNS = system: XF 498 CNS
LOX IMVI melanoma = system: LOX IMVI melanoma
OVCAR-3 ovarian = system: OVCAR-3 ovarian
RXF-631 renal = system: RXF-631 renal

Compound: COc1ccc([C@@H]2CC(=O)NCCCCNCCCN2)cc1
- TGI (786-0 renal): > 100 µM
- TGI (A498 renal): > 100 µM
- TGI (A549 NSCLC): > 100 µM
- TGI (ACHN renal): > 100 µM
- TGI (CAKI-1 renal): > 100 µM
- TGI (CCRF-CEM leukemia): > 100 µM
- TGI (COLO 205 colon): > 100 µM
- TGI (DLD-1 colon): > 100 µM
- TGI (DMS 114 small cell lung): > 100 µM
- TGI (DMS 273 small cell lung): > 100 µM
- TGI (EKVX NSCLC): > 100 µM
- TGI (HCT-116 colon): > 100 µM
- TGI (HCT-15 colon): > 100 µM
- TGI (HL-60(TB) leukemia): > 100 µM
- TGI (HOP-18 NSCLC): > 100 µM
- TGI (HOP-62 NSCLC): > 100 µM
- TGI (HOP-92 NSCLC): > 100 µM
- TGI (HT29 colon): > 100 µM
- TGI (IGROV1 ovarian): > 100 µM
- TGI (K-562 leukemia): > 100 µM
- TGI (KM12 colon): > 100 µM
- TGI (KM20L2 colon): > 100 µM
- TGI (LXFL 529 NSCLC): > 100 µM
- TGI (M14 melanoma): > 100 µM
- TGI (M19-MEL melanoma): > 100 µM
- TGI (MALME-3M melanoma): > 100 µM
- TGI (MOLT-4 leukemia): > 100 µM
- TGI (NCI-H226 lung): > 100 µM
- TGI (NCI-H23 lung): > 100 µM
- TGI (NCI-H460 lung): > 100 µM
- TGI (NCI-H522 lung): > 100 µM
- TGI (OVCAR-4 ovarian): > 100 µM
- TGI (OVCAR-5 ovarian): > 100 µM
- TGI (OVCAR-8 ovarian): > 100 µM
- TGI (RPMI-8226 leukemia): > 100 µM
- TGI (RXF 393 renal): > 100 µM
- TGI (SF-268 CNS): > 100 µM
- TGI (SF-295 CNS): > 100 µM
- TGI (SF-539 CNS): > 100 µM
- TGI (SK-MEL-2 melanoma): > 100 µM
- TGI (SK-MEL-28 melanoma): > 100 µM
- TGI (SK-MEL-5 melanoma): > 100 µM
- TGI (SK-OV-3 ovarian): > 100 µM
- TGI (SN12C renal): > 100 µM
- TGI (SNB-19 CNS): > 100 µM
- TGI (SNB-75 CNS): > 100 µM
- TGI (SNB-78 CNS): > 100 µM
- TGI (SR leukemia): > 100 µM
- TGI (SW-620 colon): > 100 µM
- TGI (TK-10 renal): > 100 µM
- TGI (U251 CNS): > 100 µM
- TGI (UACC-257 melanoma): > 100 µM
- TGI (UACC-62 melanoma): > 100 µM
- TGI (UO-31 renal): > 100 µM
- TGI (XF 498 CNS): > 100 µM

Compound: CN1OC2OC(=O)OC2[C@H]1[C@H]1O[C@H](c2ccccc2)OC1(C)c1cc(OC(=O)c2ccccc2)ccc1OC(=O)c1ccccc1 (some centres undefined)
- TGI (786-0 renal): > 50 µM
- TGI (A549 NSCLC): > 50 µM
- TGI (ACHN renal): > 50 µM
- TGI (CAKI-1 renal): > 50 µM
- TGI (CCRF-CEM leukemia): > 50 µM
- TGI (COLO 205 colon): > 50 µM
- TGI (DLD-1 colon): > 50 µM
- TGI (DMS 114 small cell lung): > 50 µM
- TGI (DMS 273 small cell lung): > 50 µM
- TGI (EKVX NSCLC): > 50 µM
- TGI (HCT-116 colon): > 50 µM
- TGI (HCT-15 colon): > 50 µM
- TGI (HL-60(TB) leukemia): > 50 µM
- TGI (HOP-62 NSCLC): > 50 µM
- TGI (HOP-92 NSCLC): > 50 µM
- TGI (HT29 colon): > 50 µM
- TGI (IGROV1 ovarian): > 50 µM
- TGI (K-562 leukemia): > 50 µM
- TGI (KM12 colon): > 50 µM
- TGI (KM20L2 colon): > 50 µM
- TGI (LOX IMVI melanoma): > 50 µM
- TGI (LXFL 529 NSCLC): > 50 µM
- TGI (M14 melanoma): > 50 µM
- TGI (M19-MEL melanoma): > 50 µM
- TGI (MALME-3M melanoma): > 50 µM
- TGI (MOLT-4 leukemia): > 50 µM
- TGI (NCI-H226 lung): > 50 µM
- TGI (NCI-H23 lung): > 50 µM
- TGI (NCI-H460 lung): > 50 µM
- TGI (NCI-H522 lung): > 50 µM
- TGI (OVCAR-3 ovarian): > 50 µM
- TGI (OVCAR-4 ovarian): > 50 µM
- TGI (OVCAR-5 ovarian): > 50 µM
- TGI (OVCAR-8 ovarian): > 50 µM
- TGI (RPMI-8226 leukemia): > 50 µM
- TGI (RXF 393 renal): > 50 µM
- TGI (RXF-631 renal): > 50 µM
- TGI (SF-268 CNS): > 50 µM
- TGI (SF-539 CNS): > 50 µM
- TGI (SK-MEL-2 melanoma): > 50 µM
- TGI (SK-MEL-28 melanoma): > 50 µM
- TGI (SK-MEL-5 melanoma): > 50 µM
- TGI (SK-OV-3 ovarian): > 50 µM
- TGI (SN12C renal): > 50 µM
- TGI (SNB-19 CNS): > 50 µM
- TGI (SNB-75 CNS): > 50 µM
- TGI (SNB-78 CNS): > 50 µM
- TGI (SR leukemia): > 50 µM
- TGI (SW-620 colon): > 50 µM
- TGI (TK-10 renal): > 50 µM
- TGI (U251 CNS): > 50 µM
- TGI (UACC-257 melanoma): > 50 µM
- TGI (UO-31 renal): > 50 µM
- TGI (XF 498 CNS): > 50 µM
